Measured values taken from ChEMBL document CHEMBL1201862, “PubChem BioAssay data set” (2004).
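Test compounds were applied to cells in 96-well plates for 48 hours at 5 doses. GI50 marks 50% less growth.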 The source made the active and inactive calls. Cut-off read from the data, not from the text of the source: active = GI50 up to about 1.1 µM and inactive = higher.

Experiments:
Test in all cases: inhibition of tumour cell growth, NCI panel, 48 h
786-0 = tested on: 786-0
A498 = tested on: A498
A549 = tested on: A549
ACHN = tested on: ACHN
BT-549 = tested on: BT-549
CAKI-1 = tested on: CAKI-1
CCRF-CEM = tested on: CCRF-CEM
COLO 205 = tested on: COLO 205
DU-145 = tested on: DU-145
EKVX = tested on: EKVX
HCC 2998 = tested on: HCC 2998
HCT-116 = tested on: HCT-116
HCT-15 = tested on: HCT-15
HL-60 = tested on: HL-60
HOP-62 = tested on: HOP-62
HOP-92 = tested on: HOP-92
HT-29 = tested on: HT-29
Hs-578T = tested on: Hs-578T
IGROV-1 = tested on: IGROV-1
K562 = tested on: K562
KM12 = tested on: KM12
LOX IMVI = tested on: LOX IMVI
M14 = tested on: M14
MCF7 = tested on: MCF7
MDA-MB-231 = tested on: MDA-MB-231
MDA-MB-435 = tested on: MDA-MB-435
MDA-N = tested on: MDA-N
MOLT-4 = tested on: MOLT-4
Malme-3M = tested on: Malme-3M
NCI-H226 = tested on: NCI-H226
NCI-H23 = tested on: NCI-H23
NCI-H460 = tested on: NCI-H460
NCI-H522 = tested on: NCI-H522
NCI/ADR-RES = tested on: NCI/ADR-RES
OVCAR-3 = tested on: OVCAR-3
OVCAR-4 = tested on: OVCAR-4
OVCAR-5 = tested on: OVCAR-5
OVCAR-8 = tested on: OVCAR-8
PC-3 = tested on: PC-3
RPMI-8226 = tested on: RPMI-8226
RXF 393 = tested on: RXF 393
SF-268 = tested on: SF-268
SF-295 = tested on: SF-295
SF-539 = tested on: SF-539
SK-MEL-28 = tested on: SK-MEL-28
SK-MEL-2 = tested on: SK-MEL-2
SK-MEL-5 = tested on: SK-MEL-5
SK-OV-3 = tested on: SK-OV-3
SN12C = tested on: SN12C
SNB-19 = tested on: SNB-19
SW-620 = tested on: SW-620
T47D = tested on: T47D
TK-10 = tested on: TK-10
U-251 = tested on: U-251
UACC-257 = tested on: UACC-257
UACC-62 = tested on: UACC-62
UO-31 = tested on: UO-31

CCCCCc1cccc(=O)o1
GI50 (786-0): > 100 µM (inactive) | GI50 (A498): 57.9 µM (inactive) | GI50 (A549): > 100 µM (inactive) | GI50 (ACHN): > 100 µM (inactive) | GI50 (BT-549): > 100 µM (inactive) | GI50 (CAKI-1): > 100 µM (inactive) | GI50 (CCRF-CEM): > 100 µM (inactive) | GI50 (COLO 205): > 100 µM (inactive) | GI50 (DU-145): > 100 µM (inactive) | GI50 (EKVX): > 100 µM (inactive) | GI50 (HCC 2998): > 100 µM (inactive) | GI50 (HCT-116): > 100 µM (inactive) | GI50 (HCT-15): > 100 µM | GI50 (HL-60): > 100 µM (inactive) | GI50 (HOP-62): > 100 µM (inactive) | GI50 (HOP-92): 44.2 µM (inactive) | GI50 (HT-29): > 100 µM (inactive) | GI50 (Hs-578T): > 100 µM (inactive) | GI50 (IGROV-1): > 100 µM (inactive) | GI50 (K562): > 100 µM (inactive) | GI50 (KM12): > 100 µM (inactive) | GI50 (LOX IMVI): > 100 µM (inactive) | GI50 (M14): > 100 µM (inactive) | GI50 (MCF7): > 100 µM (inactive) | GI50 (MDA-MB-231): > 100 µM (inactive) | GI50 (MDA-MB-435): > 100 µM (inactive) | GI50 (MDA-N): > 100 µM (inactive) | GI50 (MOLT-4): > 100 µM (inactive) | GI50 (Malme-3M): > 100 µM (inactive) | GI50 (NCI-H226): > 100 µM (inactive) | GI50 (NCI-H23): > 100 µM (inactive) | GI50 (NCI-H460): > 100 µM (inactive) | GI50 (NCI-H522): > 100 µM (inactive) | GI50 (NCI/ADR-RES): > 100 µM (inactive) | GI50 (OVCAR-3): > 100 µM (inactive) | GI50 (OVCAR-4): > 100 µM (inactive) | GI50 (OVCAR-5): > 100 µM (inactive) | GI50 (OVCAR-8): > 100 µM (inactive) | GI50 (PC-3): > 100 µM (inactive) | GI50 (RPMI-8226): > 100 µM (inactive) | GI50 (RXF 393): > 100 µM (inactive) | GI50 (SF-268): > 100 µM (inactive) | GI50 (SF-295): > 100 µM (inactive) | GI50 (SF-539): > 100 µM (inactive) | GI50 (SK-MEL-28): > 100 µM (inactive) | GI50 (SK-MEL-2): > 100 µM (inactive) | GI50 (SK-MEL-5): > 100 µM (inactive) | GI50 (SK-OV-3): > 100 µM (inactive) | GI50 (SN12C): > 100 µM (inactive) | GI50 (SNB-19): > 100 µM (inactive) | GI50 (SW-620): > 100 µM (inactive) | GI50 (T47D): > 100 µM (inactive) | GI50 (TK-10): > 100 µM (inactive) | GI50 (U-251): > 100 µM (inactive) | GI50 (UACC-257): > 100 µM (inactive) | GI50 (UACC-62): > 100 µM (inactive) | GI50 (UO-31): > 100 µM (inactive)
